Measurements: US11629171B2, “Beta-hairpin peptidomimetics” (POLYPHOR AG, priority 2017, dated 2023)
In brackets after ≈: the same amount, converted by molar mass. Where a SMILES comes first, the peptide text is derived from it. Bridges are numbered along the chain shown (N, C = ends). Roman numbers before positions name the chains, in order. [ ]: non-standard residue; d: D form. d(pGlu) = O=C1CC[C@H](C(=O)O)N1; Thr(ol) = C[C@@H](O)[C@H](N)CO; Pen = CC(C)(S)[C@H](N)C(=O)O; Tle = CC(C)(C)[C@H](N)C(=O)O; NMeV = CN[C@H](C(=O)O)C(C)C; dDab = NCC[C@@H](N)C(=O)O; hSer = N[C@@H](CCO)C(=O)O; Orn = NCCC[C@H](N)C(=O)O; Dab = NCC[C@H](N)C(=O)O; Abu = CC[C@H](N)C(=O)O; Dap = NC[C@H](N)C(=O)O

Assays:
Format in all cases: cell-based
[1] = system: Acinetobacter baumannii DSM 30008; conditions: DSM 30008
How it was run: (§1)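 Two-fold peptide dilutions in polysorbate 80-containing (0.002% final) cation-adjusted Mueller-Hinton II broth were inoculated with about 10^6 CFU/mL. The MIC was taken as the lowest concentration, in μg/mL, preventing visible growth at 18-20 hours and 35° C.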

[2] = system: Pseudomonas aeruginosa ATCC 27853; conditions: ATCC 27853
How it was run: as §1

[3] = system: Klebsiella pneumoniae 968733; conditions: 968733
How it was run: as §1

Escherichia coli 926415 = conditions: 926415
How it was run: as §1

[4] = system: Enterobacter cloacae 848840; conditions: 848840
How it was run: as §1

[5] = system: Escherichia coli ATCC 25922; conditions: ATCC 25922
How it was run: as §1

[6] = system: Klebsiella pneumoniae SSI #3010; conditions: SSI #3010
How it was run: as §1

[7] = system: Acinetobacter baumannii 872842; conditions: 872842
How it was run: as §1

[8] = system: human red blood cells (hRBC); assay: Hemolysis; conditions: red cells of human, 1 h, 200
How it was run: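 hRBC washed 4× in PBS; 200 μg/mL peptide + 20% (v/v) hRBC, 1 h, 37° C, 300 rpm. Spin, supernatant ~7.5-fold diluted, OD540 blank corrected. % hemolysis = OD540 peptide / OD540 Triton X-100 × 100.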

Row | Compound | Acinetobacter baumannii DSM 30008 MIC [1] [µg/mL] | Pseudomonas aeruginosa ATCC 27853 MIC [2] [µg/mL] | MIC [3] [µg/mL] | MIC (Escherichia coli 926415) [µg/mL] | MIC [4] [µg/mL] | Escherichia coli ATCC 25922 MIC [5] [µg/mL] | Klebsiella pneumoniae SSI #3010 MIC [6] [µg/mL] | MIC [7] [µg/mL] | Hemolysis at 200 μg/mL [8] [%] | MIC [1] [µg/mL] | MIC [2] [µg/mL] | MIC [5] [µg/mL] | MIC [6] [µg/mL]
1 | CC[C@@H]1NC(=O)[C@@H](CC(C)C)NC(=O)[C@H](CCN)NC(=O)[C@@H](NC(=O)[C@H](CN)NC(=O)[C@@H](NC(=O)[C@H](CCN)NC(=O)CC[C@@H]2NC(=O)[C@H](CCN)NC(=O)[C@H](Cc3ccc(O)cc3)NC(=O)[C@@H](NC(=O)[C@@H](NC(C)=O)C(C)C)CSSC[C@@H](C(=O)N[C@@H](C)C(=O)N[C@H](CO)C(N)=O)NC(=O)[C@H]([C@@H](C)CC)NC(=O)[C@H](CO)NC(=O)[C@H](Cc3c[nH]c4ccccc34)NC(=O)[C@H](CO)NC(=O)[C@@H](CCN)NC2=O)[C@@H](C)O)CCNC(=O)[C@H]([C@@H](C)O)NC(=O)[C@H](CCN)NC(=O)[C@H](CCN)NC1=O [Ex. 369] (I: Ac-VCY[Dab]E[dDab]SWSICA[dS]-NH2 / II: [Dab]T[Dap][Dab][Dab][dL][Abu][Dab][Dab]T; disulfide I:2-I:11; amide I:5-II:N; lactam II:4-II:C) | 0.007813 | 0.0625 | 0.0625 (≈ 0.0254 µM) | 0.0625 (≈ 0.0254 µM) | 0.03125 (≈ 0.0127 µM) | 0.01562 | 0.03125 | 0.03125 (≈ 0.0127 µM) | <1 | – | – | – | –
2 | CC(C)C[C@@H]1NC(=O)[C@@H](CC(C)C)NC(=O)[C@H](CCN)NC(=O)[C@@H](NC(=O)[C@H](CN)NC(=O)[C@@H](NC(=O)[C@H](CCN)NC(=O)CC[C@@H]2NC(=O)[C@H](CN)NC(=O)[C@H](Cc3ccc(O)cc3)NC(=O)[C@@H](NC(=O)[C@@H](NC(=O)[C@H]3CCC(=O)N3)C(C)C)CSSC[C@@H](C(=O)N[C@H](CO)[C@@H](C)O)NC(=O)[C@H](C(C)(C)C)NC(=O)[C@H](CO)NC(=O)[C@H](Cc3c[nH]c4ccccc34)NC(=O)[C@H]([C@@H](C)O)NC(=O)[C@@H](CCN)NC2=O)[C@@H](C)O)CCNC(=O)[C@H]([C@@H](C)O)NC(=O)[C@H](CCN)NC(=O)[C@H](CCN)NC1=O [Ex. 233] (I: [d(pGlu)]VCY[Dap]E[dDab]TWS[Tle]C[Thr(ol)] / II: [Dab]T[Dap][Dab][Dab][dL]L[Dab][Dab]T; disulfide I:3-I:12; amide I:6-II:N; lactam II:4-II:C) | – | – | 0.0625 (≈ 0.0252 µM) | 0.0625 (≈ 0.0252 µM) | 0.125 (≈ 0.0503 µM) | – | – | 0.0625 (≈ 0.0252 µM) | <1 | 0.0625 (≈ 0.0252 µM) | 0.125 (≈ 0.0503 µM) | 0.03125 (≈ 0.0126 µM) | 0.0625 (≈ 0.0252 µM)
3 | CC(=O)N[C@H](C(=O)N[C@H]1CSSC[C@@H](C(=O)N[C@@H](CO)C(N)=O)NC(=O)[C@H](C(C)C)NC(=O)[C@H](CCC(=O)O)NC(=O)[C@H](Cc2c[nH]c3ccccc23)NC(=O)[C@H](CCN)NC(=O)[C@@H](CCN)NC(=O)[C@H](CCC(=O)N[C@@H](CCN)C(=O)N[C@H](C(=O)N[C@@H](CN)C(=O)N[C@H]2CCNC(=O)[C@H]([C@@H](C)O)NC(=O)[C@H](CCN)NC(=O)[C@H](CCN)NC(=O)[C@H](CC(C)C)NC(=O)[C@@H](CC(C)C)NC(=O)[C@H](CCN)NC2=O)[C@@H](C)O)NC(=O)[C@H](CCN)NC(=O)[C@H](Cc2ccc(O)cc2)NC1=O)C(C)C [Ex. 153] (I: Ac-VCY[Dab]E[dDab][Dab]WEVCS-NH2 / II: [Dab]T[Dap][Dab][Dab][dL]L[Dab][Dab]T; disulfide I:2-I:11; amide I:5-II:N; lactam II:4-II:C) | – | – | 0.25 (≈ 0.102 µM) | 0.125 (≈ 0.0509 µM) | 0.125 (≈ 0.0509 µM) | – | – | 0.0625 (≈ 0.0255 µM) | <1 | 0.03125 (≈ 0.0127 µM) | 0.125 (≈ 0.0509 µM) | 0.0625 (≈ 0.0255 µM) | 0.0625 (≈ 0.0255 µM)
4 | CC(=O)N[C@H](C(=O)N[C@H]1CSSC[C@@H](C(=O)N[C@@H](CO)C(N)=O)NC(=O)[C@H](C(C)C)NC(=O)[C@@H]2CSSC[C@H](NC(=O)[C@H](Cc3ccc(O)cc3)NC1=O)C(=O)N[C@@H](CCC(=O)N[C@@H](CCN)C(=O)N[C@H](C(=O)N[C@@H](CCN)C(=O)N[C@H]1CCNC(=O)[C@H]([C@@H](C)O)NC(=O)[C@H](CCN)NC(=O)[C@H](CCN)NC(=O)[C@H](CC(C)C)NC(=O)[C@@H](CC(C)C)NC(=O)[C@H](CCN)NC1=O)[C@@H](C)O)C(=O)N[C@H](CCN)C(=O)N[C@@H](CCO)C(=O)N[C@@H](Cc1c[nH]c3ccccc13)C(=O)N2)C(C)C [Ex. 175] (I: Ac-VCYCE[dDab][hSer]WCVCS-NH2 / II: [Dab]T[Dab][Dab][Dab][dL]L[Dab][Dab]T; disulfide I:2-I:11, I:4-I:9; amide I:5-II:N; lactam II:4-II:C) | – | – | 0.5 (≈ 0.205 µM) | 0.25 (≈ 0.102 µM) | 0.25 (≈ 0.102 µM) | – | – | 0.0625 (≈ 0.0256 µM) | 1 | 0.125 (≈ 0.0511 µM) | 0.125 (≈ 0.0511 µM) | 0.0625 (≈ 0.0256 µM) | 0.125 (≈ 0.0511 µM)
5 | CN[C@H](C(=O)N[C@@H](CN)C(=O)N[C@@H](Cc1ccc(O)cc1)C(=O)N[C@@H]1C(=O)N[C@@H](CCC(=O)N[C@@H](CCN)C(=O)N[C@H](C(=O)N[C@@H](CCN)C(=O)N[C@H]2CCNC(=O)[C@H]([C@@H](C)O)NC(=O)[C@H](CCN)NC(=O)[C@H](CCN)NC(=O)[C@H](CC(C)C)NC(=O)[C@@H](CC(C)C)NC(=O)[C@H](CCN)NC2=O)[C@@H](C)O)C(=O)N[C@H](CCN)C(=O)N[C@@H]([C@@H](C)O)C(=O)N[C@@H](Cc2c[nH]c3ccccc23)C(=O)N[C@H](C(=O)N[C@H](C(=O)N[C@@H](C)C(=O)N[C@@H](CO)C(N)=O)C(C)(C)C)CSSC1(C)C)C(C)C [Ex. 181] (I: H-[NMeV][Dap]Y[Pen]E[dDab]TWC[Tle]AS-NH2 / II: [Dab]T[Dab][Dab][Dab][dL]L[Dab][Dab]T; disulfide I:4-I:9; amide I:5-II:N; lactam II:4-II:C) | – | – | 8 (≈ 3.32 µM) | 2 (≈ 0.83 µM) | 1 (≈ 0.415 µM) | – | – | 2 (≈ 0.83 µM) | <1 | 0.25 (≈ 0.104 µM) | 0.5 (≈ 0.207 µM) | 0.25 (≈ 0.104 µM) | 0.5 (≈ 0.207 µM)
6 | CC(=O)N[C@@H](Cc1ccccc1)C(=O)N[C@H]1CCCNC(=O)[C@@H]([C@H](C)O)NC(=O)[C@H](C(C)(C)C)NC(=O)[C@H](CO)NC(=O)[C@H](Cc2c[nH]c3ccccc23)NC(=O)[C@H](CCO)NC(=O)[C@@H](CCN)NC(=O)[C@H](CCC(=O)N[C@@H](CCN)C(=O)N[C@H](C(=O)N[C@@H](CN)C(=O)N[C@H]2CCNC(=O)[C@H]([C@@H](C)O)NC(=O)[C@H](CCN)NC(=O)[C@H](CCN)NC(=O)[C@H](CC(C)C)NC(=O)[C@@H](CC(C)C)NC(=O)[C@H](CCN)NC2=O)[C@@H](C)O)NC(=O)[C@H](CN)NC(=O)[C@H](Cc2ccc(O)cc2)NC1=O [Ex. 36] (I: Ac-F[Orn]Y[Dap]E[dDab][hSer]WS[Tle][dT] / II: [Dab]T[Dap][Dab][Dab][dL]L[Dab][Dab]T; lactam I:2-I:C, II:4-II:C; amide I:5-II:N) | – | – | 0.25 (≈ 0.106 µM) | 0.125 (≈ 0.0528 µM) | 0.125 (≈ 0.0528 µM) | – | – | 0.0625 (≈ 0.0264 µM) | <1 | 0.0625 (≈ 0.0264 µM) | 0.25 (≈ 0.106 µM) | 0.0625 (≈ 0.0264 µM) | 0.125 (≈ 0.0528 µM)
7 | CC(=O)N[C@@H](CCN)C(=O)N[C@H](C(=O)N[C@H](C(=O)N[C@@H](Cc1ccc(O)cc1)C(=O)N[C@@H](CN)C(=O)N[C@@H](CCC(=O)N[C@@H](CCN)C(=O)N[C@H](C(=O)N[C@@H](CN)C(=O)N[C@H]1CCNC(=O)[C@H]([C@@H](C)O)NC(=O)[C@H](CCN)NC(=O)[C@H](CCN)NC(=O)[C@H](CC(C)C)NC(=O)[C@@H](CC(C)C)NC(=O)[C@H](CCN)NC1=O)[C@@H](C)O)C(=O)N[C@H](CCN)C(=O)N[C@@H](CCN)C(=O)N[C@@H](Cc1c[nH]c2ccccc12)C(=O)N[C@@H](CO)C(=O)N[C@H](C(=O)N[C@@H](C)C(=O)N[C@@H](CO)C(=O)N[C@@H](CCC(=O)O)C(N)=O)C(C)(C)C)[C@@H](C)O)C(C)C [Ex. 248] (I: Ac-[Dab]VTY[Dap]E[dDab][Dab]WS[Tle]ASE-NH2 / II: [Dab]T[Dap][Dab][Dab][dL]L[Dab][Dab]T; amide I:6-II:N; lactam II:4-II:C) | – | – | 4 (≈ 1.53 µM) | 0.25 (≈ 0.0958 µM) | 4 (≈ 1.53 µM) | – | – | 1 (≈ 0.383 µM) | <1 | 0.5 (≈ 0.192 µM) | 0.25 (≈ 0.0958 µM) | 0.125 (≈ 0.0479 µM) | 0.125 (≈ 0.0479 µM)
